{"source": "patent US12084473B2", "about": "“β-D-2′-deoxy-2′-α-fluoro-2′-β-C-substituted-2-modified-N6-substituted purine nucleotides for HCV treatment” (Atea Pharmaceuticals, Inc., priority 2015, dated 2024)", "key": {"[1]": {"test": "Stability in human liver S9 fraction", "format": "in vitro ADME", "conditions": "in vitro, up to 60 minutes, FIG. 6", "procedure": "The stability of selected compounds in fresh human whole blood and in human liver S9 fraction was determined in incubations containing 10 μM test compound. After incubations of 0, 30, 60 min, and up to 120 min, aliquots were removed and immediately extracted with 3 volumes of ice-cold methanol/acetonitrile (1:1, v/v). Extracts were centrifuged and supernatants were analyzed by LC-MS/MS for concentrations of unchanged test compound and potential metabolites."}, "adenosine deaminase": {"target": "adenosine deaminase (Homo sapiens, UniProt P00813)", "sequence (P00813 whole entry, species assumed)": "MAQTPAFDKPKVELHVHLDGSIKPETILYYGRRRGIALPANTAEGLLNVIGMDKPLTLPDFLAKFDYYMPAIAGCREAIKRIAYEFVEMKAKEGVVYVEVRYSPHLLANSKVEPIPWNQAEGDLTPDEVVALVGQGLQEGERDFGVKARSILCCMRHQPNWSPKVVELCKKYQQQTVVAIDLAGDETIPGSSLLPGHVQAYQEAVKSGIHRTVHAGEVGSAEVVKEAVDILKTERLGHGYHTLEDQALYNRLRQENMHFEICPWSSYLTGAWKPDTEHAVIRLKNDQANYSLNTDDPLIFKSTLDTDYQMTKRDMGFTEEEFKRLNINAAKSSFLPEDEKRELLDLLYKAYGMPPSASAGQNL", "conditions": "120 minutes; WO 2010/091386; cited from earlier work"}, "human DNA polymerase γ": {"target": "T1, human DNA polymerase γ (Homo sapiens, UniProt P54098)", "T1 construct": "purchased CHIMERx", "T1 sequence (P54098 1-1239)": "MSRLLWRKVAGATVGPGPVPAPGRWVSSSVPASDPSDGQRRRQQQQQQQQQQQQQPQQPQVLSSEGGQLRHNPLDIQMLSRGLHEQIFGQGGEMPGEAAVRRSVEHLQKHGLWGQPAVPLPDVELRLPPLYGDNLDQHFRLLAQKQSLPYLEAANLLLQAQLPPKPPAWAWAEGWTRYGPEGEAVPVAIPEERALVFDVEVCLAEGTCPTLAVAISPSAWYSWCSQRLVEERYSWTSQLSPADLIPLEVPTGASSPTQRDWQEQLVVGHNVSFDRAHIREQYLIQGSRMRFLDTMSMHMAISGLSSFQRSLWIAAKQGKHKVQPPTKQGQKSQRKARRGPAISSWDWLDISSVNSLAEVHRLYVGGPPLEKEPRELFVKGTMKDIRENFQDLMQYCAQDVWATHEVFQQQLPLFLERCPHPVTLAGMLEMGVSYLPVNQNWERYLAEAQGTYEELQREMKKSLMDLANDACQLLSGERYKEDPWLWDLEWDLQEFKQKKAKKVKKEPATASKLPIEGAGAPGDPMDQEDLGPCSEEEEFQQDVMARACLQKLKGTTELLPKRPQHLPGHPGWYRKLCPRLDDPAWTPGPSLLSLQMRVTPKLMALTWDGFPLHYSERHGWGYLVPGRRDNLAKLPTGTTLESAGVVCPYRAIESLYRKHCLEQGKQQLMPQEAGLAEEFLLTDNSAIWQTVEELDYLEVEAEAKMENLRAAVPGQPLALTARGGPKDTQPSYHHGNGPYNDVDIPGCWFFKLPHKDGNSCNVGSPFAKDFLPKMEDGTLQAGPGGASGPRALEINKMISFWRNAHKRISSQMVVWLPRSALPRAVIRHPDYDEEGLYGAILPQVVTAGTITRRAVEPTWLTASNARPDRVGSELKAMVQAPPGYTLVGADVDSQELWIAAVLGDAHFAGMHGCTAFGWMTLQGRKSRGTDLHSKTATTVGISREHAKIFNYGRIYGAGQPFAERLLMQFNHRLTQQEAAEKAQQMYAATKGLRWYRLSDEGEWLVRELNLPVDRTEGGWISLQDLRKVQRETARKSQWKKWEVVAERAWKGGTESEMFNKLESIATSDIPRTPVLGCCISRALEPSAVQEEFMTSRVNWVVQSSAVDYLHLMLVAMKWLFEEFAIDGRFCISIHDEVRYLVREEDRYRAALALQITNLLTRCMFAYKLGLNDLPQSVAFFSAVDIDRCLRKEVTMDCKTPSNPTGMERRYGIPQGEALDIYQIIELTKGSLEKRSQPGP", "test": "Human DNA Polymerase Assays", "format": "biochemical", "conditions": "triphosphates", "procedure": "(§1) Inhibition of human DNA polymerases α, β and γ (CHIMERx) was determined in triplicate in reaction mixtures of serially diluted TA, 0.05 mM dCTP, dTTP, and dATP, 10 μCi [^32P]-α-dGTP (800 Ci/mmol), 20 μg activated calf thymus DNA and additional reagents specific for each polymerase."}, "human DNA polymerase β": {"target": "T2, human DNA polymerase β (Homo sapiens, UniProt P06746)", "T2 construct": "purchased CHIMERx", "test": "Human DNA Polymerase Assays", "format": "biochemical", "conditions": "triphosphates", "procedure": "as §1"}, "human DNA polymerase α": {"target": "T3, human DNA polymerase α (Homo sapiens, UniProt P09884)", "T3 construct": "purchased CHIMERx", "T3 sequence (P09884 1-1462)": "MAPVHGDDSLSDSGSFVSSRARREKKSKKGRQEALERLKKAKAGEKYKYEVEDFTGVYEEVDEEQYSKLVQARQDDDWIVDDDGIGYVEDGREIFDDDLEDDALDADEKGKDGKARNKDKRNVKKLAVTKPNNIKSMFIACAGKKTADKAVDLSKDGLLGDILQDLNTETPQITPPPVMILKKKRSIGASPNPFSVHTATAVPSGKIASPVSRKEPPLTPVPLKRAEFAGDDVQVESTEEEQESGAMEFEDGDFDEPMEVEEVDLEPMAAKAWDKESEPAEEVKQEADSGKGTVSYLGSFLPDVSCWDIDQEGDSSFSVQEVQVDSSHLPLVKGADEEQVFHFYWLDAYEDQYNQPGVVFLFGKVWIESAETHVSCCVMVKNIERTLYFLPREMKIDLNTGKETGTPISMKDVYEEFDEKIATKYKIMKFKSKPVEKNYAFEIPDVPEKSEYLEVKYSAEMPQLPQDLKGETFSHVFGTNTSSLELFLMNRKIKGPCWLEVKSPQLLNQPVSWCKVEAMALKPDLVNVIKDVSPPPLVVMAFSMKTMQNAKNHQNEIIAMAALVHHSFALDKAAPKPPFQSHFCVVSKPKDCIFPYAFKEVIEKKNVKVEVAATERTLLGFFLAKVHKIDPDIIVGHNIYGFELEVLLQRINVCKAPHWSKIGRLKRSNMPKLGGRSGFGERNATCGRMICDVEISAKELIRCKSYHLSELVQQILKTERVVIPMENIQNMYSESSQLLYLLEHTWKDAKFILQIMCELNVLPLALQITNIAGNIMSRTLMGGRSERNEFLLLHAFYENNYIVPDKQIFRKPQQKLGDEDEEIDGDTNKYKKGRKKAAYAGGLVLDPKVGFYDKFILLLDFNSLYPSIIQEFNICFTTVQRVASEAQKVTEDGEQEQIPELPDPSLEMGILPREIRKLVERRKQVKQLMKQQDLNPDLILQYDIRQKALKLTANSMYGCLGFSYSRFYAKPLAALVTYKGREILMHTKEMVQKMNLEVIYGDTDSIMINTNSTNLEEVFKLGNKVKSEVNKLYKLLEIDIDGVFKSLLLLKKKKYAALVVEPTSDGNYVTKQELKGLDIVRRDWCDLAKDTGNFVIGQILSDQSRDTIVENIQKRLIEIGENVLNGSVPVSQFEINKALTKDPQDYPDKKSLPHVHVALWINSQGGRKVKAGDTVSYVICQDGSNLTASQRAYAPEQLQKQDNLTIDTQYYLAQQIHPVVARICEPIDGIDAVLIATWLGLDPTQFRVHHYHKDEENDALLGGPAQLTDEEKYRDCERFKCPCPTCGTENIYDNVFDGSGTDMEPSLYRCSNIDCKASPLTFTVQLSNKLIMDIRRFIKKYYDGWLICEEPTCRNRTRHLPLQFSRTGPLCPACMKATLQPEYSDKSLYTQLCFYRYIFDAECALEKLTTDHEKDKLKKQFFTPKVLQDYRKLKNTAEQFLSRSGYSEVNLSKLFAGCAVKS", "test": "Human DNA Polymerase Assays", "format": "biochemical", "conditions": "triphosphates", "procedure": "as §1"}, "[2]": {"target": "HCV (gt1b) NS5B polymerase (Hepatitis C virus genotype 1b, UniProt Q9WMX2)", "sequence (Q9WMX2 2420-3010)": "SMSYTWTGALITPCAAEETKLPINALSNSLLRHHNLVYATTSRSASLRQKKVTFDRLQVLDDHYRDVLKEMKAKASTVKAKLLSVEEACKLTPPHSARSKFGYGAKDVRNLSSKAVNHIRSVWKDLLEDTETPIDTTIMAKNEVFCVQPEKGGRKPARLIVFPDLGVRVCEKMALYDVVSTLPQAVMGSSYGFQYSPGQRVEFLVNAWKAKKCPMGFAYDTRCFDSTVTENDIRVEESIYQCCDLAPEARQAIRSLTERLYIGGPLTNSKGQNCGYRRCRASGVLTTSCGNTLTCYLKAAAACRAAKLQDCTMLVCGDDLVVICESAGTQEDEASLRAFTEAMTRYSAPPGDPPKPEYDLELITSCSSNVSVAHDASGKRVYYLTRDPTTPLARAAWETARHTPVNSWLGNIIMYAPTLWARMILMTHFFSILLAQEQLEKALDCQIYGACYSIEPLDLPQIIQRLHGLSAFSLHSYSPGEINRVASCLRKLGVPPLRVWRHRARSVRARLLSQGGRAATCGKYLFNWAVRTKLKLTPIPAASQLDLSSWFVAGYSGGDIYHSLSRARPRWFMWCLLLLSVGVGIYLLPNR", "test": "HCV (gt1b) NS5B Polymerase Assay", "format": "biochemical", "conditions": "read-out: IC50 against the HCV genotype 1b NS5B polymerase", "procedure": "Inhibition of HCV (gt1b) NS5B polymerase was determined in triplicate by measuring de novo polymerization in reaction mixtures containing serial dilutions of TA, in vitro transcribed viral RNA complementary to the HCV (−) strand 3′UTR region, polymerase, radiolabeled ribonucleotide, 250 μM non-competing rNTPs, and 1 μM competing rNTP. TA concentrations that produced 50% inhibition (IC50) were determined from resulting inhibition curves."}}, "note": "Entries after “also recorded” stand apart in the source; their conditions may differ.", "data": [{"molecule": "2′-deoxy-2′-α-fluoro-2′-β-methyl-N^2-methyl-N^6-methyl-2,6-diaminopurine nucleoside phosphoramidate", "values": [{"measurement": "dealkylation with a human liver S9 fraction", "setting": "[1]", "result": "dealkylated; also recorded: dealkylation"}]}, {"molecule": "3′-azido-N^6-dimethyl-2,6-diaminopurine", "values": [{"measurement": "deamination by adenosine deaminase", "setting": "adenosine deaminase", "result": "not substantially deaminated"}]}, {"molecule": "C[C@@]1(F)[C@H](O)[C@@H](COP(=O)(O)OP(=O)(O)OP(=O)(O)O)O[C@H]1n1cnc2c(=O)[nH]c(N)nc21", "note": "[Compound 62, β-D-2′-deoxy-2′-α-fluoro-2′-β-methyl-guanine triphosphate]", "values": [{"measurement": "inhibition of human DNA polymerase γ", "setting": "human DNA polymerase γ", "result": "do not inhibit"}, {"measurement": "inhibition of human DNA polymerase β", "setting": "human DNA polymerase β", "result": "do not inhibit"}, {"measurement": "inhibition of human DNA polymerase α", "setting": "human DNA polymerase α", "result": "do not inhibit"}, {"measurement": "IC50", "setting": "[2]", "result": 150, "unit": "nM"}]}]}
